Tested on: rumen fluid batch culture
Test: Rumen fluid batch culture test: volatile fatty acid, gas (CH4 + H2), protein and amino acid accumulation (Example 2)
Format: cell-based, steers
Set-up: HFo (formate) / HAc (acetate) / HPr (propionate) / HiBu (isobutyrate) / HBu (butyrate) / HiVal (isovalerate) / Total / Caloric Value of H2 / Caloric Value of HFo / Caloric Value of HAc / Caloric Value of HPr / Caloric Value of HiBu / Caloric Value of HBu / Caloric Value of HiVal / Caloric Value of CH3: unit not given here
Conditions: for Caloric Value of CH3 / Caloric Value of H2 / Caloric Value of HAc / Caloric Value of HBu / Caloric Value of HFo / Caloric Value of HPr / Caloric Value of HiBu / Caloric Value of HiVal / Caloric Value, Total (VFA's) / Total Cal in VFA & Gas: produced on Day 10; for CH4 produced on Day 10 / H2 produced on Day 10 / HAc (acetate) produced on Day 10 / HBu (butyrate) produced on Day 10 / HFo (formate) produced on Day 10 / HPr (propionate) produced on Day 10 / HiBu (isobutyrate) produced on Day 10 / HiVal (isovalerate) produced on Day 10 / Total VFA's produced on Day 10: total produced on Day 10
Protocol: The above Formula IV composition was tested to determine its effectiveness as a feed additive for ruminants. The initial tests were in rumen fluid batch culture systems to determine the effect of the compound on volatile fatty acid/methane ratios (VFA/CH4). […] Test Procedure: A 50/50 mixture of ground corn and ground alfalfa was used as the substrate for the subject rumen fluid batch culture test. The compound (Formula IV ) was present in the rumen fluid in three separate test samples at 8.33, 25 and 75 ppm, respectively. On day 1, rumen fluid was obtained from mature fistulated steers on 50/50 concentrate/roughage diets. The rumen fluid (RF) was strained through three layers of gauze cloth and equilibrated with C02 gas. Wheaton serum vials (125 ml) were prepared ahead with 20 ml continuous batch buffer and 100 mg 50/50 ground corn/ground alfalfa. Controls and compounds (dissolved in acetone) were set up according to desired levels. The vials were kept under C02 gas until 20 ml of the strained RF was added. The vials were sealed and incubated at 39°C for 24 hours in a hot water bath. On successive days, gas samples (0.1 ml) were drawn for gas chromatography analysis before transferring 20 ml of the batch culture to another vial containing 20 ml of buffer, 100 mg substrate, and the corresponding compound. The remaining 20 ml was inoculated with 2 ml 6N HC1 and centrifuged at 15,000 rpm for 15 minutes. Ether extracts were prepared for volatile fatty acid (VFA) analysis. Some minor adjustments were made in the termperatures on the Hewlett-Packard 5750 Gas-Liquid Chromatograph used for VFA analysis when the glass column used was changed from 1/4 inch diameter to 1/8 inch diameter. Injection Port = 220°C Column Oven = 170°C Flame Detector = 250°C Only 4 minutes was needed to record the sample instead of the previous 7 minutes.

[1] = all levels tested (8.33, 25 and 75 ppm), versus control

## 2,2'-(4,5-diphenyl-2H-imidazol-2-ylidene)bispyridine with CuCl2(1/1) [Formula IV Compound]
25 µg/ml, day 8
  CH4: 6 µ Moles
  H2: 17 µ Moles
  HAc (acetate): 20.38
  HBu (butyrate): 8.39
  HFo (formate): 2.20
  HPr (propionate): 14.71
  HiBu (isobutyrate): 2.73
  HiVal (isovalerate): 0
  Protein: 0 mg/mL
  Total: 48.40
25 µg/ml, day 9
  AA: 0.20 µ Moles/ml
  CH4: 28 µ Moles
  H2: 22 µ Moles
  HAc (acetate): 20.91
  HBu (butyrate): 5.82
  HFo (formate): 1.78
  HPr (propionate): 14.96
  HiBu (isobutyrate): 1.21
  HiVal (isovalerate): 0
  Protein: 0.03 mg/mL
  Total: 44.66
25 µg/ml, day 10
  AA: 0.30 µ Moles/ml
  CH4: 55 µ Moles
  H2: 8 µ Moles
  HAc (acetate): 21.76
  HBu (butyrate): 2.06
  HFo (formate): 1.00
  HPr (propionate): 13.79
  HiBu (isobutyrate): 0.01
  HiVal (isovalerate): 0
  Protein: 0 mg/mL
  Total: 38.62
25 µg/ml
  Caloric Value of CH3: 11.59
  Caloric Value of H2: 0.55
  Caloric Value of HAc: 94.73
  Caloric Value of HBu: 0
  Caloric Value of HFo: 0.28
  Caloric Value of HPr: 92.13
  Caloric Value of HiBu: 0
  Caloric Value of HiVal: 0
  Caloric Value, Total (VFA's): 187.14
  Total Cal in VFA & Gas: 199.28 cal
25 μg/ml
  CH4 produced on Day 10: 55
  H2 produced on Day 10: 8
  HAc (acetate) produced on Day 10: 452.4
  HBu (butyrate) produced on Day 10: 0
  HFo (formate) produced on Day 10: 4.40
  HPr (propionate) produced on Day 10: 252.4
  HiBu (isobutyrate) produced on Day 10: 0
  HiVal (isovalerate) produced on Day 10: 0
  Total VFA's produced on Day 10: 709.2
75 µg/ml, Day 10, initial feed gross energy 800 kcal
  Gross Cal Remaining in Feed: 350.70 cal
75 µg/ml, by day 10
  methane: inhibited completely
75 µg/ml, day 2
  AA: 0.18 µ Moles/ml
  CH4: 155 µ Moles
  H2: 0 µ Moles
  HAc (acetate): 33.48
  HBu (butyrate): 8.18
  HFo (formate): 0.95
  HPr (propionate): 11.10
  HiBu (isobutyrate): 0.95
  HiVal (isovalerate): 0.69
  Protein: 0 mg/mL
  Total: 55.34
75 µg/ml, day 3
  AA: 0.27 µ Moles/ml
  CH4: 71 µ Moles
  H2: 0 µ Moles
  HAc (acetate): 28.66
  HBu (butyrate): 15.10
  HFo (formate): 0.80
  HPr (propionate): 14.81
  HiBu (isobutyrate): 3.81
  HiVal (isovalerate): 0.44
  Protein: 0.04 mg/mL
  Total: 63.61
75 µg/ml, day 4
  CH4: 74 µ Moles
  H2: 0 µ Moles
  HAc (acetate): 27.47
  HBu (butyrate): 5.26
  HFo (formate): 1.29
  HPr (propionate): 18.71
  HiBu (isobutyrate): 0.95
  HiVal (isovalerate): 0.25
  Total: 53.92
75 µg/ml, day 5
  CH4: 74 µ Moles
  H2: 0 µ Moles
  HAc (acetate): 23.84
  HBu (butyrate): 4.59
  HFo (formate): 0.61
  HPr (propionate): 17.24
  HiBu (isobutyrate): 0.51
  HiVal (isovalerate): 0.26
  Total: 47.03
75 µg/ml, day 6
  AA: 0.20 µ Moles/ml
  CH4: 67 µ Moles
  H2: 0 µ Moles
  HAc (acetate): 25.01
  HBu (butyrate): 1.78
  HFo (formate): 0.51
  HPr (propionate): 16.43
  HiBu (isobutyrate): 0.39
  HiVal (isovalerate): 0.58
  Protein: 0.02 mg/mL
  Total: 44.68
75 µg/ml, day 7
  AA: 0.26 µ Moles/ml
  CH4: 3 µ Moles
  H2: 0 µ Moles
  HAc (acetate): 19.59
  HBu (butyrate): 9.9
  HFo (formate): 3.17
  HPr (propionate): 14.41
  HiBu (isobutyrate): 0.83
  HiVal (isovalerate): 0.10
  Protein: 0.01 mg/mL
  Total: 48.01
75 µg/ml, day 8
  AA: 0.31 µ Moles/ml
  CH4: 3 µ Moles
  H2: 0 µ Moles
  HAc (acetate): 17.86
  HBu (butyrate): 11.25
  HFo (formate): 3.52
  HPr (propionate): 14.08
  HiBu (isobutyrate): 2.61
  HiVal (isovalerate): 0
  Protein: 0 mg/mL
  Total: 49.31
75 µg/ml, day 9
  AA: 0.34 µ Moles/ml
  CH4: 0 µ Moles
  H2: 11 µ Moles
  HAc (acetate): 18.93
  HBu (butyrate): 9.21
  HFo (formate): 2.61
  HPr (propionate): 13.41
  HiBu (isobutyrate): 3.16
  HiVal (isovalerate): 0.26
  Protein: 0 mg/mL
  Total: 50.56
75 µg/ml, day 10
  AA: 0.47 µ Moles/ml
  CH4: 0 µ Moles
  H2: 14 µ Moles
  HAc (acetate): 18.71
  HBu (butyrate): 8.16
  HFo (formate): 2.52
  HPr (propionate): 14.57
  HiBu (isobutyrate): 3.74
  HiVal (isovalerate): 0.27
  Protein: 0 mg/mL
  Total: 47.97
75 µg/ml
  Caloric Value of CH3: 0
  Caloric Value of H2: 0.96
  Caloric Value of HAc: 77.39
  Caloric Value of HBu: 74.05
  Caloric Value of HFo: 3.06
  Caloric Value of HPr: 114.76
  Caloric Value of HiBu: 31.54
  Caloric Value of HiVal: 3.80
  Caloric Value, Total (VFA's): 304.60
  Total Cal in VFA & Gas: 305.56 cal
75 μg/ml
  CH4 produced on Day 10: 0
  H2 produced on Day 10: 14
  HAc (acetate) produced on Day 10: 369.6
  HBu (butyrate) produced on Day 10: 142.4
  HFo (formate) produced on Day 10: 48.8
  HPr (propionate) produced on Day 10: 314.4
  HiBu (isobutyrate) produced on Day 10: 86.4
  HiVal (isovalerate) produced on Day 10: 5.6
  Total VFA's produced on Day 10: 994.2
8.33 and 25 µg/ml
  Total energy in the end products: less than the control
8.33 and 75 µg/ml (not 25 µg/ml), versus control
  butyrate produced: more butyrate was produced
8.33 ppm
  methane: decreased slightly
25 and 75 ppm, first 6 days
  hydrogen production: no hydrogen production
  methane: slight decreases
25 and 75 ppm, seventh day
  hydrogen produced: some hydrogen produced
  methane: dropped drastically
75 ppm dosage level, Table 3
  increasing the number of calories available from the animals' feed: most effective amount
All dosage levels, Table 2
  shift in volatile fatty acids produced: desired shift in volatile fatty acids produced away from acetate towards propionate
[1]
  Acetate: decreased
  propionate: increased
Tests of Examples 2 and 3
  activity in rumen fluid batch culture tests: activity comparable to monensin
